From patent publication US20180237358A1, “RADIOISOTOPE 18F SUBSTITUTED THIAMINE, AND SYNTHESIS METHOD AND USE THEREOF” (ZHONGSHAN HOSPITAL FUDAN UNIVERSITY, priority 2015, published 2018)
“And” between values parts separate entries of the source, which are not always exact repeats. Equal values may be shown once.

Assays:
[1] = small animal PET/CT scan of two strains of mice (summary statement); type: in vivo, mice (ICR and C57BL/6); settings: ICR and C57BL/6 mice
From the text: is successfully substituted with ^18F atom, and a fluorine-substituted thiamine (Formula I) and a hydrobromide thereof (Formula II) are synthesized. Subsequently, the present inventors scan two strains of mice (ICR and C57BL/6) using the small animal PET/CT.

[2] = PET/CT scan of C57BL/6 mice with ^18F substituted thiamine as tracer, whole brain ROI (SUV, TAC); type: in vivo
From the text: 1. Experiments on Scanning of C57BL/6 Mice by Using ^18F Substituted Thiamine as a PET/CT Tracer.
(§1) 1.1. Experimental Drug: ^18F Substituted Thiamine (Synthesized and Identified as in Example 1).
(§2) 1.2. Animals and treatments: 8-week-old C57BL/6 mice, SPF grade, purchased from Shanghai SLAC Laboratory Animal Co., Ltd, were housed in a barrier environment and assigned to a treatment group and a control group, randomly. The animals in the treatment group were fed with thiamine deficient diet (n=2), and the animals in the control group were fed with normal diet (n=3). After 28 days, PET/CT scan of the mice was performed.
1.3. PET/CT scan of the mice: Small animal PET/CT scanner (Inveon, Siemens), thickness of PET layer: 0.78 mm, 128*128 matrix, energy window: 350-650 kev, CT tube current: 500 uA, tube voltage: 80 kv; scan mode: dynamic scan; scan time: 90 min.
(§3) 1.4. Processing of PET/CT image: After the acquisition, the images were reconstructed with two iterations of 3D OSEM. The whole brain was delimited as the region of interest (ROI) by the image processing software coming with the Inveon small animal PET/CT scanner. The SUV and TAC within 90 min were calculated.

[3] = PET/CT scan of ICR mice with ^18F substituted thiamine as tracer, whole brain ROI (SUV, TAC); type: in vivo
From the text: 1. Experiments on Scanning of ICR Mice by Using ^18F Substituted Thiamine as a PET/CT Tracer.
as §1
as §2, with “ICR” for “C57BL/6”, “group” for “group,”, “(n=3),” for “(n=2),”
1.3. PET/CT scan of the mice: small animal PET/CT scanner (Inveon, Siemens) thickness of PET layer: 0.78 mm, 128*128 matrix, energy window: 350-650 kev, CT tube current: 500 uA, tube voltage: 80 kv; scan mode: dynamic scan; scan time: 90 min.
as §3, with “Standard uptake value (SUV)” for “SUV”

[4] = as above; type: in vivo; settings: control group ICR mice (normal diet), two mice

Row | SMILES | uptake in the brain of thiamine-deficient model mice versus control mice [1] | blood-brain barrier penetration ([1]; small animal PET/CT) | uptake in the brains of thiamine-deficient mice versus control (images) ([2]; C57BL/6 mice, FIGS. 12 and 13) | SUV value at absorption peak in the brain ([2]; control group C57BL/6 mice (normal diet), individual mice) | SUV value at peak of accumulation in the brain ([2]; thiamine-deficient group C57BL/6 mice, individual mice, at 90 min) | time of peak of accumulation in the brain ([2]; thiamine-deficient group C57BL/6 mice, two mice, rose continuously over 90 min) [min] | uptake in the brains of thiamine-deficient group versus control (images) ([3]; ICR mice, FIGS. 8 and 9) | SUV value at peak of absorption in the brain ([3]; thiamine-deficient group ICR mice, individual mice) | time of peak of absorption in the brain ([3]; thiamine-deficient group ICR mice, individual mice, 90 min dynamic scan) | SUV value at absorption peak in the brain [4] | time of absorption peak in the brain [4]
1 | Br.Cc1ncc(C[n+]2csc(CC[18F])c2C)c(N)n1.[Br-] [^18F substituted thiamine hydrobromide] | significantly higher | successfully penetrates the blood-brain barrier |  |  |  |  |  |  |  |  | 
2 | Cc1ncc(C[n+]2csc(CC[18F])c2C)c(N)n1 [^18F substituted thiamine, 3-[(4-Amino-2-methylpyrimidin-5-yl)methyl]-5-(2-fluoroethyl)-4-methylthiazolium] |  |  | obviously increased | 0.17 and 0.25 and 0.3 | 0.48 and 0.55 | 90 | obviously increased | 0.98 and 0.97 and 0.61 | 22.5 min and 35 min and 65 min | 0.18 and 0.36 | about 20 min
